Reference: US5225607A, “Insecticidal ethers” (Imperial Chemical Industries PLC, priority 1985, dated 1993)

How the values were obtained:
Format in all cases: in vivo
Musca domestica [1] = assay: Insecticidal test, Musca domestica (houseflies - adults), contact; details: 24 h, cotton wool/sugar, 1 day, read-out: grading of mortality, MD
Procedure: (§1) The activity of the Product was determined using a variety of insect and acarine pests. The Product was used in the form of liquid preparations containing 500, 250 or 100 parts per million (ppm) by weight of the Product. The preparations were made by dissolving the Product in acetone and diluting the solutions with water containing 0.01% by weight of a wetting agent sold under the trade name "LISSAPOL" NX until the liquid preparations contained the required concentratio of the Product. "Lissapol" is a Registered Trade Mark.
(§2) The test procedure adopted with regard to each pest was basically the same and comprised supporting a number of the pests on a medium which was usually a host plant or a foodstuff on which the pests feed, and treating either or both the pests and the medium with the preparations. The mortality of the pests was then assessed at periods usually varying from one to three days after the treatment.
(§3) The results of the tests are given in Table IV for each of the Products, at the rate in parts per million given in the second column as a grading of mortality designated as A, B or C wherein A indicates 80-100% mortality or knockdown (70-100% in the case of Spodoptera exigua), B indicates 50-79% mortality or knockdown (50-69% in the case of Spodoptera exigua) and C indicates less than 50% mortality or knockdown.
(§4) In Table IV the pest organism used is designated by a letter code and the pest species, the support medium or food, and the type and duration of test is given in Table III.

Musca domestica [2] = assay: Knockdown test, Musca domestica (houseflies - adults); details: cotton wool/sugar, 4 hours, read-out: grading of knockdown, MD/KD
Procedure: as §1, §2
In the case of the species Musca domestica (housefly), additional tests to determine the knockdown effect of the compounds were performed.
as §3, §4

Blattella germanica = assay: Insecticidal test, Blattella germanica (cockroach nymphs), residual; details: 72 h, plastic pot, 3 days, read-out: grading of mortality, BG
Procedure: as §1, §2, §3, §4

Diabrotica balteata = assay: Insecticidal test, Diabrotica balteata (rootworm larvae), residual; details: 72 h, filter paper/maize seed, 3 days, read-out: grading of mortality, DB
Procedure: as §1, §2, §3, §4

Nilaparvata lugens = assay: Insecticidal test, Nilaparvata lugens (brown planthopper), contact; details: 72 h, Cabbage leaf, 3 days, read-out: grading of mortality, NL
Procedure: as §1, §2, §3, §4

Heliothis virescens = assay: whole plant or invertebrate; details: in Gossypium hirsutum, 72 h, read-out: grading of mortality, HV
Procedure: as §1, §2, §3, §4

Myzus persicae = assay: Insecticidal test, Myzus persicae (aphids), contact; details: 72 h, Chinese Cabbage leaf, 3 days, read-out: grading of mortality, MP
Procedure: as §1, §2, §3, §4

Tetranychus urticae = assay: Insecticidal/acaricidal test, Tetranychus urticae (spider mites - adult), contact; details: 72 h, French bean leaf, 3 days, read-out: grading of mortality, TU
Procedure: as §1, §2, §3, §4

Row | SMILES | mortality at 500 ppm (Musca domestica [1]) | pest or weed control at 500 ppm (Musca domestica [2]) | mortality at 500 ppm (Blattella germanica) | mortality at 500 ppm (Diabrotica balteata) | mortality at 500 ppm (Nilaparvata lugens) | mortality at 500 ppm (Heliothis virescens) | mortality at 500 ppm (Myzus persicae) | mortality at 500 ppm (Tetranychus urticae) | other results
1 | CCOc1ccc(C(COCc2ccc(F)c(Oc3ccccc3)c2)C(F)(F)F)cc1 (centres unmarked) [Compound 33, 1,1,1-Trifluoro-2-(4-ethoxyphenyl)-3-(3-phenoxy-4-fluorobenzyloxy)propane] | 80 to 100% | 80 to 100% | 80 to 100% | 80 to 100% | 80 to 100% | 80 to 100% | 80 to 100% | 80 to 100% | –
2 | CCOc1ccc(C(O)(COCc2ccc(F)c(Oc3ccc(Cl)cc3)c2)C(F)(F)F)cc1 (centres unmarked) [Compound 117, 1,1,1-Trifluoro-2-(4-ethoxyphenyl)-3-(3-(4-chlorophenoxy)-4-fluorobenzyloxy)propan-2-ol] | 50 to 79% | 80 to 100% | < 50% | < 50% | < 50% | < 50% | < 50% | < 50% | –
3 | CCOc1ccc(C(COCc2cccc(Oc3ccccc3)c2)C(F)(F)F)cc1 (centres unmarked) [Compound 1, 1,1,1-trifluoro-2-(4-ethoxyphenyl)-3-(3-phenoxybenzyloxy)propane] | 80 to 100% | 80 to 100% | 80 to 100% | 80 to 100% | 80 to 100% | 80 to 100% | 80 to 100% | 80 to 100% | –
4 | Fc1ccc(COC=C(c2ccc(Cl)cc2)C(F)(F)F)cc1Oc1ccccc1 [Compound 458, 1,1,1-trifluoro-2-(4-chlorophenyl)-3-(3-phenoxy-4-fluorobenzyloxy)prop-2-ene] | 80 to 100% | 80 to 100% | 50 to 79% | 80 to 100% | 80 to 100% | 80 to 100% | < 50% | < 50% | –
5 | FC(F)(F)Oc1ccc(C(COCc2cccc(Oc3ccccc3)c2)C(F)(F)F)cc1 (centres unmarked) [Compound 27, 1,1,1-Trifluoro-2-(4-trifluoromethoxyphenyl)-3-(3-phenoxybenzyloxy)propane] | – | – | – | – | – | – | – | – | mortality at 100 ppm (Musca domestica [1]; 100 ppm): 80 to 100%; pest or weed control at 100 ppm (Musca domestica [2]; 100 ppm): < 50%; mortality at 100 ppm (Blattella germanica; 100 ppm): 80 to 100%; mortality at 100 ppm (Diabrotica balteata; 100 ppm): 80 to 100%; mortality at 100 ppm (Nilaparvata lugens; 100 ppm): 80 to 100%; mortality at 100 ppm (Heliothis virescens): 80 to 100%; mortality at 100 ppm (Myzus persicae; 100 ppm): 80 to 100%; mortality at 100 ppm (Tetranychus urticae; 100 ppm): 80 to 100%
6 | FC(F)(F)Oc1ccc(C(=COCc2cccc(Oc3ccccc3)c2)C(F)(F)F)cc1 [Compound 463, 1,1,1-trifluoro-2-(4-trifluoromethoxyphenyl)-3-(3-phenoxybenzyloxy)prop-2-ene] | < 50% | < 50% | 80 to 100% | 80 to 100% | < 50% | 80 to 100% | 80 to 100% | < 50% | –
7 | CCOc1ccc(C(COCc2ccc(F)c(Oc3ccc(Cl)cc3)c2)C(F)(F)F)cc1 (centres unmarked) [Compound 5, 1,1,1-Trifluoro-2-(4-ethoxyphenyl)-3-(3-(4-chlorophenoxy)4-fluorobenzyloxy)propane] | 80 to 100% | 80 to 100% | 80 to 100% | 80 to 100% | 80 to 100% | 80 to 100% | 80 to 100% | 50 to 79% | –
8 | Fc1ccc(COCC(Cl)(c2ccc(Cl)cc2)C(F)(F)F)cc1Oc1ccccc1 (centres unmarked) [Compound 50, 1,1,1-Trifluoro-2-chloro-2-(4-chlorophenyl)-3-(3-phenoxy-4-fluorobenzyloxy)propane] | 80 to 100% | 80 to 100% | < 50% | 80 to 100% | 80 to 100% | 80 to 100% | 80 to 100% | < 50% | –
9 | CCOc1ccc(C(COCc2ccc(F)c(Oc3ccc(Br)cc3)c2)C(F)(F)F)cc1 (centres unmarked) [Compound 6, 1,1,1-Trifluoro-2-(4-ethoxyphenyl)-3-(3-(4-bromophenoxy)-4-fluorobenzyloxy)propane] | 80 to 100% | 80 to 100% | 80 to 100% | 80 to 100% | 80 to 100% | 80 to 100% | 80 to 100% | 80 to 100% | –
10 | CCOc1ccc(C(COCc2cccc(-c3ccccc3)c2C)C(F)(F)F)cc1 (centres unmarked) [Compound 7, 1,1,1-Trifluoro-2-(4-ethoxyphenyl)-3-(2-methyl-3-phenylbenzyloxy)propane] | 80 to 100% | 80 to 100% | 80 to 100% | 80 to 100% | 80 to 100% | < 50% | 80 to 100% | 80 to 100% | –
11 | COc1ccc(C(COCc2cccc(Oc3ccccc3)c2)C(F)(F)F)cc1 (centres unmarked) [Compound 30, 1,1,1-Trifluoro-2-(4-methoxyphenyl)-3-(3-phenoxybenzyloxy)propane] | 80 to 100% | 80 to 100% | 80 to 100% | 80 to 100% | 80 to 100% | 80 to 100% | < 50% | < 50% | –
12 | CCOc1ccc(C(Cl)(COCc2coc(Cc3ccccc3)c2)C(F)(F)F)cc1 (centres unmarked) [Compound 45, 1,1,1-Trifluoro-2-chloro-2-(4-ethoxyphenyl)-3-(5-benzyl-3-furanylmethyloxy)propane] | – | – | – | – | – | – | – | – | mortality at 250 ppm (Musca domestica [1]): < 50%; pest or weed control at 250 ppm (Musca domestica [2]): 80 to 100%; mortality at 250 ppm (Blattella germanica): < 50%; mortality at 250 ppm (Diabrotica balteata): < 50%; mortality at 250 ppm (Nilaparvata lugens): < 50%; mortality at 250 ppm (Heliothis virescens): < 50%; mortality at 250 ppm (Myzus persicae): < 50%; mortality at 250 ppm (Tetranychus urticae): 50 to 79%
13 | CCOc1ccc(C(Cl)(COCc2ccc(F)c(Oc3ccc(Cl)cc3)c2)C(F)(F)F)cc1 (centres unmarked) [Compound 44, 1,1,1-Trifluoro-2-chloro-2-(4-ethoxyphenyl)-3-(3-(4-chlorophenoxy)-4-fluorobenzyloxy)propane] | 80 to 100% | 80 to 100% | 80 to 100% | 50 to 79% | 80 to 100% | 80 to 100% | 80 to 100% | < 50% | –
14 | CCOc1ccc(C(COCc2cccc(Oc3ccc(Cl)cc3)c2)C(F)(F)F)cc1 (centres unmarked) [Compound 3, 1,1,1-Trifluoro-2-(4-ethoxyphenyl)-3-(3-(4-chlorophenoxy)benzyloxy)propane] | – | – | – | – | – | – | – | – | mortality at 250 ppm (Musca domestica [1]): 80 to 100%; pest or weed control at 250 ppm (Musca domestica [2]): 80 to 100%; mortality at 250 ppm (Blattella germanica): 80 to 100%; mortality at 250 ppm (Diabrotica balteata): 80 to 100%; mortality at 250 ppm (Nilaparvata lugens): 80 to 100%; mortality at 250 ppm (Heliothis virescens): < 50%; mortality at 250 ppm (Myzus persicae): 80 to 100%; mortality at 250 ppm (Tetranychus urticae): < 50%
15 | CCOc1ccc(C(COCc2cccc(Oc3ccc(Br)cc3)c2)C(F)(F)F)cc1 (centres unmarked) [Compound 9, 1,1,1-Trifluoro-2-(4-ethoxyphenyl)-3-(3-(4-bromophenoxy)benzyloxy)propane] | – | – | – | – | – | – | – | – | mortality at 250 ppm (Musca domestica [1]): 80 to 100%; pest or weed control at 250 ppm (Musca domestica [2]): 80 to 100%; mortality at 250 ppm (Blattella germanica): 80 to 100%; mortality at 250 ppm (Diabrotica balteata): 80 to 100%; mortality at 250 ppm (Nilaparvata lugens): < 50%; mortality at 250 ppm (Heliothis virescens): 80 to 100%; mortality at 250 ppm (Myzus persicae): < 50%; mortality at 250 ppm (Tetranychus urticae): 50 to 79%
16 | CCCc1ccc(C(=COCc2ccc(F)c(Oc3ccccc3)c2)C(F)(F)F)cc1 [Compound 460, 1,1,1-trifluoro-2-(4-n-propylphenyl)-3-(3-phenoxy-4-fluorobenzyloxy)prop-2-ene] | < 50% | < 50% | 80 to 100% | 50 to 79% | 50 to 79% | < 50% | < 50% | < 50% | –
